Test results taken from US9758491B2, “Molecules having pesticidal utility, and intermediates, compositions, and processes, related thereto” (priority 2015, dated 2017).

Legend:
Type in all cases: in vivo
[1] = test system: Cabbage Looper (Trichoplusia ni, TRIPNI); assay: Bioassay on Cabbage Looper (CL), 128-well diet tray assay; conditions: 168 h, 50 μg/cm^2 on artificial diet, second instar larvae, 25° C., five to seven days, average of eight wells, read-out: CL rating, % Control (or Mortality)
Experimental: (§1) Certain molecules disclosed in this document were tested against BAW and CL using procedures described in the following examples. In the reporting of the results, the “BAW & CL Rating Table” was used (See Table Section).
Bioassays on CL were conducted using a 128-well diet tray assay. One to five second instar CL larvae were placed in each well (3 mL) of the diet tray that had been previously filled with 1 mL of artificial diet to which 50 μg/cm^2 of the test molecule (dissolved in 50 μL of 90:10 acetone-water mixture) had been applied (to each of eight wells) and then allowed to dry. Trays were covered with a clear self-adhesive cover, vented to allow gas exchange, and held at 25° C., 14:10 light-dark for five to seven days. Percent mortality was recorded for the larvae in each well; activity in the eight wells was then averaged. The results are indicated in the table entitled “Table ABC: Biological Results” (See Table Section).

[2] = test system: Yellow Fever Mosquito (Aedes aegypti, AEDSAE); assay: Bioassay on Yellow Fever Mosquito (YFM) larvae, 96-well plate; conditions: 4000 ppm DMSO master solution diluted, about 1 day-old larvae, room temperature, scored after 3 days
Experimental: Certain molecules disclosed in this document were tested against YFM using procedures described in the following paragraph. In the reporting of the results, the “YFM Rating Table” was used (See Table Section).
Master plates containing 400 μg of a molecule dissolved in 100 μL of dimethyl sulfoxide (DMSO) (equivalent to a 4000 ppm solution) are used. A master plate of assembled molecules contains 15 μL per well. To this plate, 135 μL of a 90:10 water/acetone mixture is added to each well. A robot (Biomek® NXP Laboratory Automation Workstation) is programmed to dispense 15 μL aspirations from the master plate into an empty 96-well shallow plate (“daughter” plate). There are 6 reps (“daughter” plates) created per master. The created “daughter” plates are then immediately infested with YFM larvae.
The day before plates are to be treated, mosquito eggs are placed in Millipore water containing liver powder to begin hatching (4 g into 400 mL). After the “daughter” plates are created using the robot, they are infested with 220 μL of the liver powder/larval mosquito mixture (about 1 day-old larvae). After plates are infested with mosquito larvae, a non-evaporative lid is used to cover the plate to reduce drying. Plates are held at room temperature for 3 days prior to grading. After 3 days, each well is observed and scored based on mortality. The results are indicated in the table entitled “Table ABC: Biological Results” (See Table Section).

[3] = test system: Beet Armyworm (Spodoptera exigua, LAPHEG); assay: Bioassay on Beet Armyworm (BAW), 128-well diet tray assay; conditions: 168 h, 50 μg/cm^2 on artificial diet, second instar larvae, 25° C., five to seven days, average of eight wells, read-out: BAW rating, % Control (or Mortality)
Experimental: as §1
Bioassays on BAW were conducted using a 128-well diet tray assay. One to five second instar BAW larvae were placed in each well (3 mL) of the diet tray that had been previously filled with 1 mL of artificial diet to which 50 μg/cm^2 of the test molecule (dissolved in 50 μL of 90:10 acetone-water mixture) had been applied (to each of eight wells) and then allowed to dry. Trays were covered with a clear self-adhesive cover, vented to allow gas exchange, and held at 25° C., 14:10 light-dark for five to seven days. Percent mortality was recorded for the larvae in each well; activity in the eight wells was then averaged. The results are indicated in the table entitled “Table ABC: Biological Results” (See Table Section).

## COc1cccc(N2CCN/C2=N\C(=O)Nc2ccc(-c3ncn(-c4ccc(OC(F)(F)F)cc4)n3)cc2)c1 [F20, (E)-1-(1-(3-Methoxyphenyl)imidazolidin-2-ylidene)-3-(4-(1-(4-(trifluoromethoxy)phenyl)-1H-1,2,4-triazol-3-yl)phenyl)urea]
[1]
  mortality at 50 µg/cm2: 50 to 100%
[2]
  YFM rating, % Control (or Mortality): A (80-100)
[3]
  mortality at 50 µg/cm2: 50 to 100%

## COc1ccc(N2CCN/C2=N\C(=O)Nc2ccc(-c3ncn(-c4ccc(OC(F)(F)F)cc4)n3)cc2)cc1 [F21, (E)-1-(1-(4-Methoxyphenyl)imidazolidin-2-ylidene)-3-(4-(1-(4-(trifluoromethoxy)phenyl)-1H-1,2,4-triazol-3-yl)phenyl)urea]
[1]
  mortality at 50 µg/cm2: 50 to 100%
[2]
  YFM rating, % Control (or Mortality): A (80-100)
[3]
  mortality at 50 µg/cm2: 50 to 100%
